pIC50: −log10 of the molar value.
Columns and labels:
[1] = test system: gliadin-sensitive BALB/c mice; assay: Gliadin-sensitive BALB/c mice, 4-week oral gliadin challenge; format: in vivo, mouse
Method: In the first model, BALB/c mice are fed for at least three generations with a gluten-free diet, followed by a 4-week gliadin challenge, as described (Papista, C., et al. 2012). Ten week-old BALB/c mice were orally challenged for 4 weeks with gliadin or vehicle in the presence or absence of 2 mM VX-770 administered intraperitoneally 15 min prior to gliadin challenge (n=10 per treatment group). […] Moreover, VX-770 opposed the ability of gliadin to increase TG2 protein levels (FIG. 9c) and ERK 1/2 phosphorylation (FIG. 9d).
BALB/c mice (background BALB/cAnNCrl) were purchased from Charles River (Varese, Italy). Three generation gluten-free diet (Mucedola srl, Milan), male and female, were challenged with gliadin for 4 weeks. To assess the effects of VX-770 into a controlled environment, mice were challenged via gavage for 4 weeks with i) vehicle alone or ii) gliadin (SigmaAldich, G3375) (5 mg/daily for one week and then 5 mg/daily thrice a week for 3 weeks)(Moon, S. H., et al. 2016) in the presence or absence of intraperitoneal VX770 (0.075 mg/mice in 100 μl DMSO, 2 mM, SelleckchemS1144) or genistein (25 mg\kg in 100μ1 DMSO, SigmaAldrich), administered 15 minutes prior gliadin challenge (n=10 mice per group of treatment).
At the end of the last daily treatment, mice were anesthetized with Avertine (tribromoethanol, 250 mg/kg, Sigma Aldrich, T48402) and then killed; the intestines were collected for CFTR function analysis or stored for all described techniques.
Chambers for mounting either transwell cell cultures or mouse tissue biopsies were obtained from Physiologic Instruments (model P2300, San Diego, Calif., USA). Chamber solution was buffered by bubbling with identical Ringer solution on both sides and were maintained at 37° C., vigorously stirred, and gassed with 95% O2/[…]. Cells or tissues were short circuited using Ag/AgCl agar electrodes. A basolateral-to-apical chloride gradient was established by replacing NaCl with Na-gluconate in the apical (luminal) compartment to create a driving force for CFTR-dependent Cl secretion. To measure stimulated Isc, the changed sodium gluconate solution was supplied with 100 μM amiloride. Agonists (forskolin) were added to the bathing solutions as indicated (for a minimum 5 min of observation under each condition) to activate CFTR channels present at the apical surface of the epithelium (either cell surface or lumen side of the tissue) and CFTRInh-172 (10 μM) was added to the mucosal bathing solution to block CFTR-dependent Isc. Shortcircuit current (expressed as Isc (μA/cm2)) and resistance were acquired or calculated using the VCC600 transepithelial clamp from Physiologic Instruments and the Acquire & Analyze 2.3 software for data acquisition (Physiologic Instruments), as previously described Tosco A, et al. 2016; Romani, L. et al. 2017).
The whole lysate or membrane fraction proteins of cell lines and mice intestine homogenates were obtained from treated and untreated cells or mice as described. The equal amount of protein were resolved by SDS-PAGE gel and blotted with antibodies against: SQSTM1, (Sigma Aldrich, 108k4767) 1:1000, PPARγ (Santa Cruz Biotechnology, sc7273) 1:500, BECN1 (Abcam, ab58878) 1:1000, CFTR clone M3A7 (Abcam, ab4067) 1:500, phospho-ERK1/2 (php42/44, Cell Signaling Technology, #91101) 1:1000, UVRAG (Santa Cruz Biotechnology sc8215) 1:1000, NHERF-1 (BD, 611161) 1:1000, EZRIN (BD, 610603) 1:1000, hVps34 (SigmaV9764) 1:300, biotin (Abcam, ab1227) 1:2000, PKAr2a (BD, 610625) 1:500, Ubiquitin (Cell Signaling clone P4D1, #3936) 1:1000, CHIP (Calbiochem PC711) 1:500, Caspase-1 p10 (M-20) (Santa Cruz Biotechnology, sc-514) 1:200, NLRP3 (Abcam, ab4207), 1:500, IDO1 (monoclonal; cv152) 1:1000^[80], used as primary antibodies. Normalization was performed by probing the membrane with anti-β-actin (Cell Signaling, #4970) 1:1000, anti-Gapdh (Sigma-Aldrich, G8795) 1:1000 and anti-flottilin (Abcam ab15148) 1:1000 antibodies. […]

NBD1 ATPase activity = NBD1 ATPase activity (malachite green kit); format: biochemical, human
Method: The measurement of NBD1 ATPase activity was performed with a malachite green based kit supplied by Sigma (cod. MAK113) in accordance with the manufacturer's instructions. The enzyme activity was measured at 620 nm at room temperature using a Multiskan 96 well plates reader.

rhNBD1 ATP binding site = assay: Intrinsic tryptophan (W401) fluorescence of NBD1; design: species or system human; details: preincubation of rhNBD1 with peptide
Method: To assess the capability of P31-43 peptide to bind NBD1 domain and modify its ATP binding site the intrinsic Tryptophan fluorescence of NBD1 was measured. Experiments were performed in a 0.2 ml fluorimeter cuvette at 25° C. using Varian Cary Eclipse fluorescence spectrophotometer. NBD1 protein was diluted to 1 μM in a buffer containing 50 mM Tris/HCl (pH 7.6), 150 mM NaCl, and 5 mM MgCl2, supplemented with 2 mM ATP and P31-43 5 μM when indicated. All spectra were corrected for buffer fluorescence. Excitation wavelength was adjusted to 292 nm and emission was scanned over the range 300-500 nm.

[2] = BALB/c mice small intestine homogenates

Chain of rhNBD1 ATP binding site (P13569 389-646 limits assumed): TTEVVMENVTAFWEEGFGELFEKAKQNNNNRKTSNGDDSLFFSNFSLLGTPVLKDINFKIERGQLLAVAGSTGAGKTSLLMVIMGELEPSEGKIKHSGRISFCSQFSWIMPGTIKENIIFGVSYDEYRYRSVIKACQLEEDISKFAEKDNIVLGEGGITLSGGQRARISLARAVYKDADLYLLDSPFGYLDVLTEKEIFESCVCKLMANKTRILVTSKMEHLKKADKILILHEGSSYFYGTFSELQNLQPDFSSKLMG

| Compound | effect on gliadin induced expression of IL-21 ([1]; BALB/c mice) | effect on gliadin-induced NLRP3 expression ([1]; BALB/c mice small intestine) | effect on gliadin-induced caspase 1 cleavage ([1]; BALB/c mice small intestine) | effect on increased NKG2D expression by intraepithelial lymphocytes ([1]; BALB/c mice small intestine) | Th1 transcription factor Tbet transcript [1, 2] | Th17 transcription factor Rorc transcript [1, 2] | effect on gliadin-induced decrease of CFTR function in small intestines ([1]; BALB/c mice, 2 mM VX-770 i.p. 15 min prior to gliadin) | effect on gliadin-induced ERK 1/2 phosphorylation ([1]; BALB/c mice, VX-770 i.p.) | effect on gliadin-induced increase of TG2 protein levels ([1]; BALB/c mice, VX-770 i.p.) | effect on gliadin-induced increase of IFN-γ mRNA and protein ([1]; BALB/c mice, p<0.001) | effect on gliadin-induced increase of IL-15 mRNA and protein ([1]; BALB/c mice, p<0.001) | effect on gliadin-induced increase of IL-17A mRNA and protein ([1]; BALB/c mice, p<0.001) | IL-10 production ([1]; gliadin-sensitive mice, ELISA) | TGF-β production ([1]; gliadin-sensitive mice, ELISA) | pIC50 (NBD1 ATPase activity) | effect on ATP quenching of W401 fluorescence (rhNBD1 ATP binding site) |
| --- | --- | --- | --- | --- | --- | --- | --- | --- | --- | --- | --- | --- | --- | --- | --- | --- |
| CC(C)(C)c1cc(C(C)(C)C)c(NC(=O)c2c[nH]c3ccccc3c2=O)cc1O [VX-770, N-(2,4-di-tert-butyl-5-hydroxyphenyl)-4-oxo-1,4-dihydroquinoline-3-carboxamide] | inhibited | counteracted | counteracted | counteracted | downregulated | downregulated | inhibitable | opposed | opposed | prevented | prevented | prevented | restored | restored |  |  |
| α-gliadin peptide LGQQQPFPPQQPY (SEQ ID 1), induces an enterocyte stress response (P31-43 sequence of alpha-gliadin) |  |  |  |  |  |  |  |  |  |  |  |  |  |  | ~4.30 | quenching effect of ATP on W401 fluorescence was reduced |
